In brackets after ≈: the same amount, converted by molar mass.
Columns and labels:
[1] = Hepatic microsomal stability, HLM; assay type: in vitro ADME, human; conditions: In vitro human liver microsomal stability; for perc_remaining_no_cofactor: no cofactor
[2] = Hepatic microsomal stability, MLM; assay type: in vitro ADME
LogD = conditions: pH 7.4; In vitro LogD
[3] = In vitro kinetic solubility; conditions: In vitro kinetic solubility, ph 7.4
[4] = Permeability Papp (AB) MDR1/MDCKII; conditions: In vitro MDR1-MDCKII permeability; for papp_a_to_b_mean: A to B; for perc_recovery_a_to_b_mean: recovery A to B
[5] = In vitro mouse liver microsomal stability
[6] = In vitro mouse liver microsomal stability, no cofactor
[7] = In vitro mouse liver microsomal stability; no cofactor

Row | SMILES | clint [1] | perc_remaining [1] | t_half [1] | perc_remaining_no_cofactor [1] | clint [2, 5] | perc_remaining [2, 5] | t_half [2, 5] | perc_remaining_no_cofactor [2, 6] | logd (LogD) | solubility_mean [3] | papp_a_to_b_mean ([4]; no inhibitor) | perc_recovery_a_to_b_mean ([4]; no inhibitor) | perc_remaining_no_cofactor [2, 7] | papp_a_to_b_mean ([4]; mean) | perc_recovery_a_to_b_mean ([4]; mean)
1 | CC(C)[C@H](Nc1ncnc2[nH]c(-c3cnn(C)c3C#N)cc12)c1ccc2c(c1)NC(=O)CO2 (single isomer, unassigned) [ASAP-0013256] | 52.0 µL/min/mg | 44.0% | 32.3 min | 109.0% | 147.0 µL/min/mg | 10.0% | 11.3 min | 102.0% | 3.4 | 19 µM (≈ 8.41 µg/mL) | 2.35 ×10⁻⁶ cm/s | 78.9% |  |  | 
2 | CC(C)[C@H](Nc1ncnc2[nH]c(-c3cnn(CC(=O)N(C)C)c3)cc12)c1ccc2c(c1)OCCO2 (single isomer, unassigned) [ASAP-0013833] | 500.0 µL/min/mg | 0.0% | 3.3 min | 115.0% | 35.0 µL/min/mg | 54.0% | 48.1 min | 102.0% | 2.9 | 19 µM (≈ 9.04 µg/mL) | 2.05 ×10⁻⁶ cm/s | 82.0% |  |  | 
3 | CC(C)[C@H](Nc1ncnc2[nH]c(-c3cnn(CC(=O)N(C)C)c3)cc12)c1ccc2c(c1)OCCO2 (single isomer, unassigned) [ASAP-0013837] | 108.0 µL/min/mg | 18.0% | 15.4 min | 114.0% | 45.0 µL/min/mg | 48.0% | 36.8 min | 114.0% | 3.0 | 205 µM (≈ 97.5 µg/mL) | 1.62 ×10⁻⁶ cm/s | 87.9% |  |  | 
4 | CC(C)[C@H](CO)Nc1ncnc2[nH]ccc12 [ASAP-0000453] | 6.0 µL/min/mg | 119.0% | 289.0 min | 99.0% | 10.0 µL/min/mg | 90.0% | 171.1 min |  | 1.69 | ≥ 400 µM |  |  | 93.0% | 13.1 ×10⁻⁶ cm/s | 89.0%
5 | CNC(=O)c1c[nH]c2ncnc(N[C@@H](c3ccc4c(c3)OCCO4)C(C)C)c12 [ASAP-0008406] | 79.0 µL/min/mg | 27.0% | 21.2 min | 113.0% | 88.0 µL/min/mg | 20.0% | 19.0 min |  | 3.6 | 319 µM (≈ 122 µg/mL) |  |  | 95.0% | 16.2 ×10⁻⁶ cm/s | 92.4%
6 | CC(C)[C@H](Nc1ncnc2[nH]ccc12)c1ccc2c(c1)NC(=O)CO2 [ASAP-0008430] | 10.0 µL/min/mg | 86.0% | 160.3 min | 95.0% | 37.0 µL/min/mg | 54.0% | 45.1 min |  | 1.8 | 371 µM (≈ 125 µg/mL) |  |  | 89.0% | 3.4 ×10⁻⁶ cm/s | 90.0%
7 | CC(C)[C@H](Nc1ncnc2[nH]c(-c3cnn(CC(N)=O)c3)cc12)c1ccc2c(c1)OCCO2 [ASAP-0008449] | 47.0 µL/min/mg | 43.0% | 35.4 min | 102.0% | 16.0 µL/min/mg | 80.0% | 103.7 min | 104.0% | 2.9 | 280 µM (≈ 125 µg/mL) | 1.09 ×10⁻⁶ cm/s | 87.8% |  |  | 
8 | CNC(=O)c1cc2c(N[C@@H](c3ccc4c(c3)NC(=O)CO4)C(C)C)ncnc2[nH]1 [ASAP-0008571] | 52.0 µL/min/mg | 39.0% | 32.0 min | 94.0% | 20.0 µL/min/mg | 71.0% | 84.4 min | 103.0% | 2.8 | 372 µM (≈ 147 µg/mL) |  |  |  | 0.873 ×10⁻⁶ cm/s | 88.1%
9 | CC(C)[C@@H](Nc1ncnc2[nH]c(-c3cnn(C)c3C#N)cc12)c1ccc2c(n1)NC(=O)CO2 [ASAP-0008644] | 70.0 µL/min/mg | 30.0% | 23.7 min | 97.0% | 145.0 µL/min/mg | 9.0% | 11.5 min | 92.0% | 3.7 | 29 µM (≈ 12.9 µg/mL) |  |  |  | 9.83 ×10⁻⁶ cm/s | 91.2%
10 | CC(C)[C@@H](Nc1ncnc2[nH]c(-c3cnn(CC(N)=O)c3)cc12)c1ccc2c(n1)OCCO2 [ASAP-0008646] | 14.0 µL/min/mg | 77.0% | 120.2 min | 95.0% | 12.0 µL/min/mg | 83.0% | 145.2 min | 104.0% | 2.4 | 385 µM (≈ 173 µg/mL) |  |  |  | 2.46 ×10⁻⁶ cm/s | 73.0%
11 | CC(C)[C@@H](Nc1ncnc2[nH]c(-c3cnn(C)c3C#N)cc12)c1ccc2c(c1)S(=O)(=O)CCC2 [ASAP-0008651] | 490.0 µL/min/mg | 1.0% | 3.4 min | 94.0% | 440.0 µL/min/mg | 0.0% | 3.8 min |  | 3.6 | 34 µM (≈ 16.2 µg/mL) |  |  | 96.0% | 1.97 ×10⁻⁶ cm/s | 81.6%
12 | CC(C)[C@@H](Nc1ncnc2[nH]c(-c3cnn(C)c3)cc12)c1ccc2c(c1)S(=O)(=O)CCC2 [ASAP-0008678] | 141.0 µL/min/mg | 10.0% | 11.9 min | 102.0% | 155.0 µL/min/mg | 7.0% | 10.8 min |  | 3.3 | 94 µM (≈ 42.4 µg/mL) |  |  | 102.0% | 1.73 ×10⁻⁶ cm/s | 85.6%
13 | CNC(=O)c1cc2c(N[C@@H](c3ccc4c(c3)S(=O)(=O)CCC4)C(C)C)ncnc2[nH]1 [ASAP-0008685] | 77.0 µL/min/mg | 25.0% | 21.7 min | 101.0% | 46.0 µL/min/mg | 47.0% | 36.5 min |  | 2.4 | 369 µM (≈ 158 µg/mL) |  |  | 100.0% | 0.46 ×10⁻⁶ cm/s | 104.0%
14 | CNCc1cc(-c2cc3c(N[C@@H](c4ccc5c(c4)S(=O)(=O)CCC5)C(C)C)ncnc3[nH]2)co1 [ASAP-0010745] | 57.0 µL/min/mg | 40.0% | 29.4 min | 110.0% | 52.0 µL/min/mg | 41.0% | 32.2 min |  | 2.1 | 321 µM (≈ 154 µg/mL) |  |  | 108.0% | 1.61 ×10⁻⁶ cm/s | 90.5%
15 | CC(C)[C@H](Nc1ncnc2[nH]c(-c3cnn(C)c3C#N)cc12)c1ccc2c(c1)OCCO2 [ASAP-0010980] | 706.0 µL/min/mg | 1.0% | 2.4 min | 103.0% | 257.0 µL/min/mg | 2.0% | 6.5 min | 113.0% | 3.3 | 15 µM (≈ 6.44 µg/mL) | 5.56 ×10⁻⁶ cm/s | 39.3% |  |  | 
16 | CC(C)[C@@H](Nc1ncnc2[nH]c(-c3cnn(C)c3C#N)cc12)c1ccc2c(c1)OCCO2 [ASAP-0011033] | 47.0 µL/min/mg | 46.0% | 35.4 min | 101.0% | 129.0 µL/min/mg | 13.0% | 13.0 min | 106.0% | 3.4 | 20 µM (≈ 8.59 µg/mL) | 5.11 ×10⁻⁶ cm/s | 31.2% |  |  | 
17 | CNC(=O)c1c[nH]c2ncnc(N[C@@H](c3ccc4c(c3)S(=O)(=O)CCC4)C(C)C)c12 [ASAP-0011156] | 108.0 µL/min/mg | 17.0% | 15.4 min | 94.0% | 113.0 µL/min/mg | 15.0% | 14.7 min | 108.0% | 2.6 | 204 µM (≈ 87.2 µg/mL) | 0.857 ×10⁻⁶ cm/s | 78.7% |  |  | 
